Experimental data as given in patent US20230135524A1, “ARYL HYDANTOIN HETEROCYCLES AND METHODS OF USE” (The United States of America,as represented by the …, priority 2020, published 2023).

Tests used:
LNCaP ARin vivo = assay: IncuCyte % confluence cell growth inhibition, LNCaP ARin vivo; format: cell-based; conditions: Homo sapiens, read-out: IC50 values (μM), LNCaP ARin vivo
Method: (§1) Images were then analyzed to discern the % confluence of cells in each well. IC50 values were calculated from dose response curves of the % cell growth inhibition relative to DMSO control at the same time point per each cell line.

Progesterone Receptor B = biological target: T1, Progesterone Receptor B (Homo sapiens, UniProt P06401); assay: Radioligand competition binding, [3H] progesterone; conditions: competition with 0.5 nM [3H] progesterone
T1 sequence (P06401 1-933): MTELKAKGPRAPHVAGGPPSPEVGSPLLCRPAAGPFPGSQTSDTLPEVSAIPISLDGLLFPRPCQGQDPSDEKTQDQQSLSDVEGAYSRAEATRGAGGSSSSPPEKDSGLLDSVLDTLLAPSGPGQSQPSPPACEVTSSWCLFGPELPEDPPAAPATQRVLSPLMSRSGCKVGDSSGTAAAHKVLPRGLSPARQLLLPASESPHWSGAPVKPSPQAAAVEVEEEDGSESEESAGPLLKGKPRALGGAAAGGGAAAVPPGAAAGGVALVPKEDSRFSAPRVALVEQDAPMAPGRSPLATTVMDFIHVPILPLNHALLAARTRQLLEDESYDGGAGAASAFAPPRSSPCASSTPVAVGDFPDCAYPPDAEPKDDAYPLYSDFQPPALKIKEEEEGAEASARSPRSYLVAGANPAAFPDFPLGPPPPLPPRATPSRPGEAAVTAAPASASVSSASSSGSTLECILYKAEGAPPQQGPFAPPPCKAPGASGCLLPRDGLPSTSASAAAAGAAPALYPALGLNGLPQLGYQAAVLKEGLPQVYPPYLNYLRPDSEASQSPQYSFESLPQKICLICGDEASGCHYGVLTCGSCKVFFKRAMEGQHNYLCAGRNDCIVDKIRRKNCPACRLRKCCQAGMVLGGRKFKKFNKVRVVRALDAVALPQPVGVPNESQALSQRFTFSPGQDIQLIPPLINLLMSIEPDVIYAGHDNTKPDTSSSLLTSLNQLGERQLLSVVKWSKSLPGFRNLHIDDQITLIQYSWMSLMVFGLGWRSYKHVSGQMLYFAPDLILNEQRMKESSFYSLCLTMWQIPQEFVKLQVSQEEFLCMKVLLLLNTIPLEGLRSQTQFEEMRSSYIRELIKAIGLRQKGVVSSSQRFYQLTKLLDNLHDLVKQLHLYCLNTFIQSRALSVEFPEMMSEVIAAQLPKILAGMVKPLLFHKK
Method: (§2) Binding assays were performed via competition with radioactive ligands across a range of dose of compounds 15a and 19d. For aldosterone binding, the aldosterone receptor was incubated for 20 hours with […] aldosterone. Similarly, the androgen receptor was co-incubated with 0.5 nM of [^3H] methyltrienolone, the estrogen receptor alpha was co-incubated with 0.5 nM [^3H] estradiol, the glucocorticoid receptor with 0.5 nM [^3H] dexamethasone, and the progesterone receptor with 0.5 nM [^3H] progesterone as parent ligands.

Androgen Receptor = biological target: T2, Androgen Receptor (UniProt P10275); assay: Radioligand competition binding, [3H] methyltrienolone; conditions: competition with 0.5 nM [3H] methyltrienolone
T2 sequence (P10275 1-920): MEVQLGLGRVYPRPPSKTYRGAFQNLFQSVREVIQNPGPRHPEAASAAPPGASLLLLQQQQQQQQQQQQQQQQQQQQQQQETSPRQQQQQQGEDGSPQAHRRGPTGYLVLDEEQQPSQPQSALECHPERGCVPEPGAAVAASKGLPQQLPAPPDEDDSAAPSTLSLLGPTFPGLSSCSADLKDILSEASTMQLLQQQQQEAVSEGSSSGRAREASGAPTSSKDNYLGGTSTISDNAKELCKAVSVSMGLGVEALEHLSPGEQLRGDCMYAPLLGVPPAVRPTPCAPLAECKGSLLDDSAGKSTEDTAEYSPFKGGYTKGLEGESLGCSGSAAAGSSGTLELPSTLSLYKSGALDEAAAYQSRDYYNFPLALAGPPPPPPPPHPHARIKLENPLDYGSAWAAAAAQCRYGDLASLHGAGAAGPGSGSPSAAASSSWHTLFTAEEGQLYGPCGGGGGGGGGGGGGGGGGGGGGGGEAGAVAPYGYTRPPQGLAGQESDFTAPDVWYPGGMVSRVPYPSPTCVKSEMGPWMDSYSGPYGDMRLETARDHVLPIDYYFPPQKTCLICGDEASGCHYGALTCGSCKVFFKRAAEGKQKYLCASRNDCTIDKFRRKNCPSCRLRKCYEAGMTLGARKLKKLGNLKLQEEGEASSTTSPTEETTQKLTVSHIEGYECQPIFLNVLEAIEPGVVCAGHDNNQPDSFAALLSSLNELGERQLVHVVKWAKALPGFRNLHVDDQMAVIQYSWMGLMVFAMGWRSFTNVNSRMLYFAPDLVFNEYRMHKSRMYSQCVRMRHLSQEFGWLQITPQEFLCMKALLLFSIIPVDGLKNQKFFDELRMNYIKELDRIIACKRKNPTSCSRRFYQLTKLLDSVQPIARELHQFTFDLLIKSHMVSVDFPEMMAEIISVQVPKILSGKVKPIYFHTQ
Method: as §2

22Rv1 = assay: IncuCyte % confluence cell growth inhibition, 22Rv1; format: cell-based; conditions: Homo sapiens, 22Rv1, read-out: IC50 values (μM), 22Rv1
Method: as §1

Estrogen Receptor alpha = Estrogen Receptor alpha (Homo sapiens, UniProt P03372); assay: Radioligand competition binding, [3H] estradiol; conditions: competition with 0.5 nM [3H] estradiol
Sequence of Estrogen Receptor alpha (P03372 whole entry): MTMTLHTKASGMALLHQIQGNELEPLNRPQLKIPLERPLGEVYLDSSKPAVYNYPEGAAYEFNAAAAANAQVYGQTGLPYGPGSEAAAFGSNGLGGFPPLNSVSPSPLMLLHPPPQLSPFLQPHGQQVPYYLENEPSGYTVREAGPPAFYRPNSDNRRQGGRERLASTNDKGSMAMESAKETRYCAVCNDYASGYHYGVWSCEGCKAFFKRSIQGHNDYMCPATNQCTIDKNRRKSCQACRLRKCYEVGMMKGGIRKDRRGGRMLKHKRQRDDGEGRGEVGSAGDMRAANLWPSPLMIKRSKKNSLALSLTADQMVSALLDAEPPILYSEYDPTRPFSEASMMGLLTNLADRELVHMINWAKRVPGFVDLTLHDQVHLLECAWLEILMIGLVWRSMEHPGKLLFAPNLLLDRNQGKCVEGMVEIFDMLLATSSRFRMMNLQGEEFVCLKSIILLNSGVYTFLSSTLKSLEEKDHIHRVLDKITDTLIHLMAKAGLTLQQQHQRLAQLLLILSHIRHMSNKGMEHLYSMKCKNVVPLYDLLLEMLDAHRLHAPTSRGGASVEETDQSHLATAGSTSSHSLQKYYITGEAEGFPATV
Method: as §2

PC3 = assay: IncuCyte % confluence cell growth inhibition, PC3; format: cell-based; conditions: Homo sapiens, PC-3, read-out: IC50 values (μM), PC3
Method: as §1

CC1(C)C(=O)N(c2ccc(C#N)c(C(F)(F)F)c2)C(=S)N1Cc1ccc(-c2c[nH]nn2)cc1 [Compound 15a, 4-(3-(4-(1H-1,2,3-triazol-4-yl)benzyl)-4,4-dimethyl-5-oxo-2-thioxoimidazolidin-1-yl)-2-(trifluoromethyl)benzonitrile]
IC50 (LNCaP ARin vivo): 18.5 µM
IC50 (Progesterone Receptor B): 103 nM
IC50 (Androgen Receptor): 12.5 nM
IC50 (22Rv1): 18.3 µM
IC50 (Estrogen Receptor alpha): > 10000 nM
IC50 (PC3): 59.8 µM

CC1(C)C(=O)N(c2ccc(C#N)c(C(F)(F)F)c2)C(=S)N1Cc1ccc(-c2c[nH]nn2)cc1F [Compound 19d, 4-(3-(2-Fluoro-4-(1H-1,2,3-triazol-4-yl)benzyl)-4,4-dimethyl-5-oxo-2-thioxoimidazolidin-1-yl)-2-(trifluoromethyl)benzonitrile]
IC50 (LNCaP ARin vivo): 28.2 µM
IC50 (Progesterone Receptor B): 76.3 nM
IC50 (Androgen Receptor): 9.3 nM
IC50 (22Rv1): 26.9 µM
IC50 (Estrogen Receptor alpha): > 10000 nM
IC50 (PC3): 44.8 µM
